Patent US12304912B2, “Fused bicyclic RAF inhibitors and methods for use thereof” (Jazz Pharmaceuticals Ireland Limited, priority 2020, dated 2025)
Where two headings read alike, the source gives them in different places.

Assays:
[1] = tested on: constitutive ERK phosphorylation in WiDr cells; test: WiDr AlphaLISA SureFire pERK1/2 cellular assay; type: cell-based, human; conditions: WiDr cells, 2 hr; for IC50: Homo sapiens, read-out: pERK WiDr (2 hr) Abs pIC50 (converted)
Method: The human HCT-116 colorectal carcinoma cell line (ATCC CCL-247) endogenously expresses the KRAS^G13D mutation, which leads to constitutive activation of the MAP kinase pathway and phosphorylation of ERK. […] Assay read outs took place 2 or 24 hours after dosing with compounds. On the first day, HCT-116 cells were harvested, resuspended in growth medium (McCoys5A with Glutamax (Life Technologies 36600021) and 10% heat-inactivated fetal bovine serum (Sigma F9665)), and counted. Cells were plated in 100 μl per well in each well of a 96-well culture dish (Sigma CLS3598) to a final density of 30,000 (2 hr read) or 15,000 (24 hr read) cells per well and incubated over night at 37° C. and 5% CO2. On day 2, the growth medium was exchanged for dosing medium (McCoys5A with Glutamax (Life Technologies 36600021) and 1% heat-inactivated fetal bovine serum (Sigma F9665)) and the cells were dosed with compounds to produce a 10-point dose response, where the top concentration was 1 μM and subsequent concentrations were at 1/3 log dilution intervals. A matched DMSO control was included. The cells were subsequently incubated for either 2 or 24 hours at 37° C. and 5% CO2. After incubation, media was removed and the cells were incubated with lysis buffer containing phosphatase inhibitors for 15 minutes at room temperature. Cell lysates were transferred to a 12 area 96 well white Optiplate™ (Perkin Elmer 6005569) and incubated with anti-mouse IgG acceptor beads, a biotinylated anti-ERK1/2 rabbit antibody recognizing both phosphorylated and non-phosphorylated ERK1/2, a mouse antibody targeted to the Thr202/Tyr204 epitope and recognizing phosphorylated ERK proteins only, and streptavidin-coated donor beads. The biotinylated antibody binds to the streptavidin-coated donor beads and the phopsho-ERK1/2 antibody binds to the acceptor beads. Plates were read on an EnVision reader (Perkin Elmer) and excitation of the beads at 680 nm with a laser induced the release of singlet oxygen molecules from the donor beads that trigger energy transfer to the acceptor beads in close proximity, producing a signal that can be measured at […]. Both antibodies bound to phosphorylated ERK proteins, bringing the donor and acceptor beads into close proximity. All data were analyzed using the Dotmatics or GraphPad Prism software packages. Inhibition of ERK phosphorylation was assessed by determination of the absolute IC50 value, which is defined as the concentration of compound required to decrease the level of phosphorylated ERK proteins by 50% when compared to DMSO control.
WiDr AlphaLISA SureFire pERK1/2 Cellular Assay
The human WiDr colorectal adenocarcinoma cell line (ATCC CCL-218) endogenously expresses the BRAF^V600E mutation, which leads to constitutive activation of the MAP kinase pathway and phosphorylation of ERK. […] The main procedure is essentially the same as for HCT-116 cells (above), with the following adjustments to the growth medium (Eagle's Minimum Essential Medium (Sigma M2279) with 1× Glutamax (Life Technologies 35050038), 1× Sodium-Pyruvate (Sigma S8636), and 10% heat-inactivated fetal bovine serum (Sigma F9665)), the dosing medium (Eagle's Minimum Essential Medium (Sigma M2279) with 1× Glutamax (Life Technologies 35050038), 1× Sodium-Pyruvate (Sigma S8636), and 1% heat-inactivated fetal bovine serum (Sigma F9665)), and the seeding densities (2 hr: 50,000 cells per well; 24 hr: 35,000 cells per well). Moreover, the compounds were dosed in 1/2 log dilution intervals with the top concentration of 10 μM.

[2] = tested on: constitutive ERK phosphorylation in HCT-116 cells; test: HCT-116 AlphaLISA SureFire pERK1/2 cellular assay; type: cell-based, human; conditions: HCT116 cells, 2 hr; for IC50: Homo sapiens, HCT-116, read-out: pERK HCT116 (2 hr) Abs pIC50 (converted)
In short: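 Cells seeded overnight (30,000/well for 2 h, 15,000/well for 24 h), then dosed in 1% FBS medium with a 10-point series from 1 μM top, 1/3 log steps, for 2 or 24 h at 37 °C. Lysates read by AlphaLISA for Thr202/Tyr204 pERK1/2; absolute IC50 versus DMSO control.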

[3] = Microsomal stability assay, human liver microsomes (HLM); type: in vitro ADME; conditions: 0.5 mg/mL protein, 1 μM substrate
In short: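 Half-life and CLint come from the ln(% remaining)–time slope, with remaining compound quantified by LC-MS/MS after ice-cold solvent quench of timed samples. Incubations used 1 μM test compound and 0.5 mg·mL^−1 human or mouse liver microsomal protein at 37° C.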

Compound | IC50 ([1]; Abs) [nM] | IC50 ([2]; Abs) [nM] | microsomal CLint at 1 μM ([3]; 37° C.) [µL/min/mg] | further results
O=C1CCc2c(Oc3ccc4c(c3)CC(c3nc(-c5cccc(C(F)(F)F)c5)c[nH]3)CO4)ccnc2N1 (centres unmarked) [Compound 12, 5-[3-[4-[3-(trifluoromethyl)phenyl]-1H-imidazol-2-yl]chroman-6-yl]oxy-3,4-dihydro-1H-1,8-naphthyridin-2-one] | – | – | – | IC50 ([1]; absolute IC50): 123 nM; IC50 ([2]; absolute IC50): 257 nM; microsomal CLint at 1 μM [3]: 88.6 µL/min/mg
Cn1nc(C(F)(F)F)cc1-c1c[nH]c(C2COc3ccc(Oc4ccnc5c4CCC(=O)N5)cc3C2)n1 (centres unmarked) [Compound 107, 5-[3-[4-[2-methyl-5-(trifluoromethyl)pyrazol-3-yl]-1H-imidazol-2-yl]chroman-6-yl]oxy-3,4-dihydro-1H-1,8-naphthyridin-2-one] | 209 | 191 | 30.3 | –
O=C(Nc1cc(Oc2ccc3c(c2)CC(c2nc(-c4ccccc4)c[nH]2)CO3)ccn1)C1CC1(F)F (centres unmarked) [Compound 137, 2,2-difluoro-N-[4-[3-(4-phenyl-1H-imidazol-2-yl)chroman-6-yl]oxy-2-pyridyl]cyclopropanecarboxamide] | 74.1 | 35.5 | 32.6 | –
CC(C)CCc1c[nH]c(C2COc3ccc(Oc4ccnc5c4CCC(=O)N5)cc3C2)n1 (centres unmarked) [Compound 116] | 39.8 | 67.6 | 277 | –
O=C(Nc1nccc(Oc2ccc3c(c2)CC(c2nc(-c4ccccc4)c[nH]2)CO3)n1)C1CC1 (centres unmarked) [Compound 148, N-[4-[3-(4-phenyl-1H-imidazol-2-yl)chroman-6-yl]oxypyrimidin-2-yl]cyclopropanecarboxamide] | 871 | 302 | 132 | –
O=C(CN1CC[C@@H](O)C1)Nc1cc(Oc2ccc3c(c2)CC(c2nc(-c4ccccc4)c[nH]2)CO3)ccn1 (some centres unmarked) [Compound 145] | 331 | 166 | 57.2 | –
Cc1cc(-c2c[nH]c(C3COc4ccc(Oc5ccnc6c5CCC(=O)N6)cc4C3)n2)n(C)n1 (centres unmarked) [Compound 106, 5-[3-[4-(2,5-dimethylpyrazol-3-yl)-1H-imidazol-2-yl]chroman-6-yl]oxy-3,4-dihydro-1H-1,8-naphthyridin-2-one] | 589 | 275 | 10.5 | –
Cc1c[nH]c(-c2cc(Oc3ccc4c(c3)CC(c3nc(-c5ccccc5)c[nH]3)CO4)ccn2)n1 (centres unmarked) [Compound 143, 2-(4-methyl-1H-imidazol-2-yl)-4-[3-(4-phenyl-1H-imidazol-2-yl)chroman-6-yl]oxy-pyridine] | 302 | 309 | 36.1 | –
Cc1cc2nc(C3COc4ccc(Oc5ccnc6c5CCC(=O)N6)cc4C3)[nH]c2cc1C (centres unmarked) [Compound 29] | – | – | – | IC50 ([1]; absolute IC50): 107 nM; IC50 ([2]; absolute IC50): 132 nM; microsomal CLint at 1 μM [3]: 119 µL/min/mg
COc1cc(-c2c[nH]c(C3COc4ccc(Oc5ccnc6c5CCC(=O)N6)cc4C3)n2)ccn1 (centres unmarked) [Compound 104] | – | – | – | pERK WiDr (2 hr) Abs pIC50 ([1]; Abs): 5.96; pERK HCT116 (2 hr) Abs pIC50 ([2]; Abs): 6.50; HLM (CLint) ([3]; 37° C.): 27.8 µL/min/mg
O=C(Nc1cc(Oc2ccc3c(c2)CC(c2nc(-c4ccc(F)cc4)c[nH]2)CO3)ccn1)C1CC1 (centres unmarked) [Compound 155, N-[4-[3-[4-(4-fluorophenyl)-1H-imidazol-2-yl]chroman-6-yl]oxy-2-pyridyl]cyclopropanecarboxamide] | 102 | 60.3 | 28.9 | –
O=C1CCc2c(Oc3ccc4c(c3)CC(c3nc(-c5ccnc(C(F)(F)F)c5)c[nH]3)CO4)ccnc2N1 (centres unmarked) [Compound 8, 5-[3-[4-[2-(trifluoromethyl)-4-pyridyl]-1H-imidazol-2-yl]chroman-6-yl]oxy-3,4-dihydro-1H-1,8-naphthyridin-2-one] | – | – | – | IC50 ([1]; absolute IC50): 178 nM; pERK WiDr (2 hr) Abs pIC50 ([1]; Abs): 6.75; pERK HCT116 (2 hr) Abs pIC50 ([2]; Abs): 6.76; IC50 ([2]; absolute IC50): 174 nM; microsomal CLint at 1 μM [3]: 36 µL/min/mg
Cc1cc(-c2c[nH]c(C3COc4ccc(Oc5ccnc6c5CCC(=O)N6)cc4C3)n2)ccn1 (centres unmarked) [Compound 117, 5-[3-[4-(2-methyl-4-pyridyl)-1H-imidazol-2-yl]chroman-6-yl]oxy-3,4-dihydro-1H-1,8-naphthyridin-2-one] | 589 | 107 | 43.3 | –
CCc1cc(-c2c[nH]c(C3COc4ccc(Oc5ccnc6c5CCC(=O)N6)cc4C3)n2)ccn1 (centres unmarked) [Compound 118, 5-[3-[4-(2-ethyl-4-pyridyl)-1H-imidazol-2-yl]chroman-6-yl]oxy-3,4-dihydro-1H-1,8-naphthyridin-2-one] | 398 | 269 | 81.2 | –
O=C1CCc2c(Oc3ccc4c(c3)CC(c3nc(-c5cncc(C(F)(F)F)c5)c[nH]3)CO4)ccnc2N1 (centres unmarked) [Compound 103, 5-[3-[4-[5-(trifluoromethyl)-3-pyridyl]-1H-imidazol-2-yl]chroman-6-yl]oxy-3,4-dihydro-1H-1,8-naphthyridin-2-one] | 269 | 240 | 11.6 | –
